Usually IC50 stands for the midpoint of a concentration-inhibition curve. The term EC50 denotes the concentration giving half of the maximal effect. Broadly, the Ki is the equilibrium dissociation constant of an inhibitor or competing ligand from its target.

One data set addresses T1, GS-7340 Ester Hydrolase (Homo sapiens, UniProt P10619).
T1 construct: from tissue; host or cells: human peripheral blood mononuclear cells (extract and column pools)
The experiment in a line: biochemical. The conditions noted are these: read-out: IC50 (μM) GS-7340 Ester Hydrolase.

For data set [1], the target named is porcine liver carboxylesterase (PLCE) (Sus scrofa, UniProt Q29550). The data set can be described thus: biochemical. Conditions: read-out: Relative Activity (%).
Chain of porcine liver carboxylesterase (PLCE) (Q29550 19-566): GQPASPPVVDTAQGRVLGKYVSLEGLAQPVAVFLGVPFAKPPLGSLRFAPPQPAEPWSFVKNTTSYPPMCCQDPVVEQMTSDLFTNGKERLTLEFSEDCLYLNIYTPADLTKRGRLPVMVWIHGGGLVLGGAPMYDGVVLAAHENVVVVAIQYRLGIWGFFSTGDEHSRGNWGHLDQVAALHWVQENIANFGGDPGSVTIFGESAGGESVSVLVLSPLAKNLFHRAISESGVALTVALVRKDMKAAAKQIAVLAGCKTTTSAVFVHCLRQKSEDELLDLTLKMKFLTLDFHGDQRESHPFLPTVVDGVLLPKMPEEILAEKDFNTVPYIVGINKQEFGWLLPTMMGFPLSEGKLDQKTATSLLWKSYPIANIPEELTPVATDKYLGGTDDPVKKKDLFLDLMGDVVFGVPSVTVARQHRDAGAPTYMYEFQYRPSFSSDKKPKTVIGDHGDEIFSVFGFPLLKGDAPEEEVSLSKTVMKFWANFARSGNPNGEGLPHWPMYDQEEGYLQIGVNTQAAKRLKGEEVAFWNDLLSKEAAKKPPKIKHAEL
In data set [2] the target is human leukocyte elastase (huLE) (Homo sapiens, UniProt P08246). The conditions noted are these: 10 µM.
Chain of human leukocyte elastase (huLE) (P08246 30-267): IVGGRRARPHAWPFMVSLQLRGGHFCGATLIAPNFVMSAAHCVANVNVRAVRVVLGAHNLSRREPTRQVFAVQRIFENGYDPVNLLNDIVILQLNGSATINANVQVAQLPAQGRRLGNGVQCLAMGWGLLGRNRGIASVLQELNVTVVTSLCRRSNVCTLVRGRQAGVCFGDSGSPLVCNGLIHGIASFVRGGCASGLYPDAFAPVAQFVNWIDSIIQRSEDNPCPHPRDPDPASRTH
The test system of data set [3] is recombinant HIV-1 strain, protease 10I/48V/71V/82A/90M.
Data set [4] deals with recombinant HIV-1 strain, protease 10R/46I/82T/84V.
The test system of a further data set is WT HIV-1. The data set can be described thus: microbe, parasite or virus in culture. The class given is cell-based. Conditions: Human immunodeficiency virus 1, read-out: EC50 [nM] WT HIV-1.
The test system of data set [5] is recombinant HIV-1 strain, protease 10F/46I/71V/82T/90M.
For data set [6], the system named is recombinant HIV-1 strain, protease 46I/84A.
Data set [7] concerns recombinant HIV-1 strain, protease 48V/54V/71V/82S.
For data set [8], the system named is recombinant HIV-1 strain, protease 10I/84V/71V/73S/90M.
Data set [9] deals with recombinant HIV-1 strains with resistance mutations in the protease gene. The data set can be described thus: Cross-resistance profile assay, whole panel of mutant viruses. The class given is cell-based. Conditions: {}.
The subject of data set [10] is recombinant HIV-1 strain, protease 46I/47V/50V.
Data set [11] has as its system mutant HIV-1 with I84V/L90M mutations in the protease gene. The class given is cell-based. The conditions noted are these: fold difference in EC50, mutant vs. wild type.
Data set [12] relates to recombinant HIV-1 strain, protease 54V/71V/82S.
In data set [13] the test system is recombinant HIV-1 strain, protease 10I/48V/54V/82A.
For data set [14], the system named is recombinant HIV-1 strain, protease 30N/50S/82I/88D.
Data set [15] addresses recombinant HIV-1 protease (Human immunodeficiency virus type 1 group M subtype B, UniProt P04585). The data set can be described thus: biochemical. Format: biochemical. The conditions noted are these: Ki (pM), class symbols, Table 10.
A short description of a further data set: in vitro. Conditions: human.

T1 sequence (P10619 29-326 limits assumed): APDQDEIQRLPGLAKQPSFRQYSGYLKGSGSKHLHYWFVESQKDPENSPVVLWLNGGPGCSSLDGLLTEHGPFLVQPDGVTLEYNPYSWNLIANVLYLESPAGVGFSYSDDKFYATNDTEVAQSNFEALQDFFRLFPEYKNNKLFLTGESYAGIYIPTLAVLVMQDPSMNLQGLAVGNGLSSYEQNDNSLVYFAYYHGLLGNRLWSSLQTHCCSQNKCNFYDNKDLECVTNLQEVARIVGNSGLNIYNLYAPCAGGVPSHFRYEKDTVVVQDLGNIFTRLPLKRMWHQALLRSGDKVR
T1 sequence (P10619 327-480 limits assumed): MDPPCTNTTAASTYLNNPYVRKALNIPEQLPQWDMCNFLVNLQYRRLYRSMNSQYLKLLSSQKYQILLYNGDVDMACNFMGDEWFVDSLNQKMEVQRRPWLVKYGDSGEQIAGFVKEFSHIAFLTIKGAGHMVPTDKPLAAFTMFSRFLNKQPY

For the molecule `O=c1oc(Cl)c(Cl)c2ccccc12` [3,4-dichloroisocoumarin], on GS-7340 Ester Hydrolase, the IC50 turned out to be 4 µM. Further, in [1], the activity at 1 µM worked out at 100%, the activity at 10 µM amounted to 100%, the activity at 100 µM came to 90% and the activity at 1000 µM turned out to be 20%. For the same molecule, the “Relative Activity (%)” value in data set [2] is 25%.

`Cc1cccc(C)c1OCC(=O)N[C@@H](Cc1ccccc1)[C@@H](O)C[C@H](Cc1ccccc1)NC(=O)[C@H](C(C)C)N1CCCNC1=O` [Lopinavir]: the “Fold Change in EC50 Relative to WT HIV-1” value was 4.5 in data set [3]; 11 in data set [4]; 7.5 in data set [5]; 9 in data set [6]; 60 in data set [7]; 11 in [8]. In data set [10], the “Fold Change in EC50 Relative to WT HIV-1” value came out at 19. Moreover, the EC50 with WT HIV-1 stood at 8 nM. The “Total No. of Resistant Viruses” value in data set [9] came to 6.

As for `CCC[C@@]1(CCc2ccccc2)CC(O)=C([C@H](CC)c2cccc(NS(=O)(=O)c3ccc(C(F)(F)F)cn3)c2)C(=O)O1` [Tipranavir], the “Fold Change in EC50 Relative to WT HIV-1” value in data set [3] is listed as 0.3; in [4], 5; in data set [5] it was 3; in [6], 1; in data set [7], 2; in data set [12], 3.5. Also, the “Fold Change in EC50 Relative to WT HIV-1” value in data set [13] worked out at 0.4; in data set [10], 0.5; in [14] it was 0.5. For the same molecule, the EC50 with WT HIV-1 turned out to be 80 nM. Moreover, the I84V/L90M fold change result in [11] was “+ (>3 to ≦10)”. Moreover, the “Total No. of Resistant Viruses” value in data set [9] was 1.

Take `CCOC(=O)C(C)OP(=O)(COc1ccc(CC(NC(=O)OC2COC3OCCC23)C(O)CN(CC(C)C)S(=O)(=O)c2ccc(OC)cc2)cc1)Oc1ccccc1` (centres unmarked) [drawing 658 R1=OPh R2=Lac-Et]: the Ki in [15] lay in the range of 10 to 100 pM. In addition, the CC50 at 5 days in the data set “in vitro” lay within 5000 to 50000 nM.
